Test results published in patent publication US4801610A, “Phenolic ester derivatives as elastase inhibitors” (G. D. Searle & Co., priority 1987, dated 1989).

Target: T1, Human Leukocyte Elastase (HLE) (Homo sapiens, UniProt P08246)
T1 sequence (P08246 30-247 limits assumed): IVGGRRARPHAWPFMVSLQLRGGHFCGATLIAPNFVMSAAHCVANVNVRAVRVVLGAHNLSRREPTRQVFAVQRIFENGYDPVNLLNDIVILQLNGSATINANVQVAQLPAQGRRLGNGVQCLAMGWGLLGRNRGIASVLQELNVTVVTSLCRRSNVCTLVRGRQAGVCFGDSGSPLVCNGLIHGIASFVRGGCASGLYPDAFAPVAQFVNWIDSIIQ
Assay: Inhibition of Human Leukocyte Elastase (HLE), hydrolysis of Methoxysuccinyl-Ala-Ala-Pro-Val-nitroanilide
Format: biochemical
Conditions: tris-HCl buffer pH 8.0, absorption at 410 nm, read-out: Inhibition of Elastase IC50, [Molar]
Procedure: Several biochemical and animal model tests can be used to examine the ability of the derivatives of the invention to prevent or alleviate the harmful biological action of elastase. The biochemical assays permit direct measurement of drug controlled inhibition of elastase fragmentation of proteins. […] In these tests, protease reaction with the substrate is measured in the presence and absence of the drug to be tested. Inhibition of protease action is indicated by a decrease in the amount of substrated fragmented. The basic parameters for such biochemical assays have been reported in the literature: J. Biol. Chem., 255, 5435 (1980); Biochem. Biophys Acta., 268, 257 (1973); Anal. Biochem. 48,9 (1972); and Biochemistry, 20, 3675 (1981). EXAMPLE 42 Inhibition of Human Leukocyte Elastase (HLE) This test measures the rate of hydrolysis of Methoxysuccinyl-[…]-nitroanilide by HLE in the presence and absence of the compound to be tested. The procedure used is as follows. […] The test hydrolysis solution was then prepared by adding 850 microliters buffer, 50 microliters derivative solution, 50 microliters peptide solution and 50 microliters of HLE solution to a 1 cm. semi-micro cuvette. The cuvette was capped, slightly shaken and placed in the light chamber of a recording colorimeter where the increase in absorption at 410 nm. due to liberated nitroaniline was measured. Using this procedure, the one minute change in absorption of the test sample containing derivative was compared to the change in absorption in the absence of derivative. A 20% or more decrease in the rate of absorption was interpreted as a positive inhibition.

| Structure (SMILES) | IC50 |
| --- | --- |
| CC(C)(C)C(=O)Oc1ccc(C(=O)c2ccccc2)cc1 [Example 1, 4-pivaloyloxybenzophenone] | 620 nM |
| CC(C)(C)C(=O)Oc1ccc(C(=O)c2ccc(OC(=O)C(C)(C)C)cc2)cc1 [Example 1a, 4,4'-dipivaloyloxybenzophenone] | 60 nM |
| CC(C)(C)C(=O)Oc1ccc(C(=O)c2ccc(OC(=O)C(C)(C)C)cc2OC(=O)C(C)(C)C)cc1 [Example 2, 2,4,4'-tripivaloyloxybenzophenone] | 55 nM |
| CC(C)(C)C(=O)Oc1ccc(C(=O)c2ccc(Cl)cc2)cc1 [Example 6, 4-pivaloyloxy-4'-chlorobenzophenone] | 290 nM |
| CCCC(C)(C)C(=O)Oc1ccc(C(=O)c2ccc(OC(=O)C(C)(C)CCC)cc2)cc1 [Example 7, 4,4'-α,α-dimethylvaleroyloxybenzophenone] | 670 nM |
| CC(C)(C)C(=O)Oc1cc(C(=O)c2ccc(OC(=O)C(C)(C)C)c(OC(=O)C(C)(C)C)c2OC(=O)C(C)(C)C)cc(OC(=O)C(C)(C)C)c1OC(=O)C(C)(C)C [Example 9, 3,4,5,4',5',6',-hexapivaloyloxybenzophenone] | 360 nM |
| CC(C)(C)C(=O)Oc1ccc(C(=O)c2ccccc2)c(OC(=O)C(C)(C)C)c1 [Example 13, 2,4-dipivaloyloxybenzophenone] | 84 nM |
| CC(C)(C)OC(=O)Oc1ccc(C(=O)c2ccc(OC(=O)OC(C)(C)C)cc2)cc1 [Example 14, 4,4'-di(t-butyloxycarbonyloxy)benzophenone] | 900 nM |
| CC(C)(C)C(=O)Oc1ccc(Oc2ccc(OC(=O)C(C)(C)C)cc2)cc1 [Example 16, 4,4'-dipivaloyloxydiphenylether] | 460 nM |
| C=C(C)Cc1cc(C(=O)c2ccccc2)ccc1OC(=O)C(C)(C)C [Example 25, 3-methallyl-4-pivaloyloxybenzophenone] | 85 nM |
| C=CCc1cc(C(=O)c2ccccc2)ccc1OC(=O)C(C)(C)C [Example 26, 3-allyl-4-pivaloyloxybenzophenone] | 800 nM |
| C=CC(C)c1cc(C(=O)c2ccccc2)ccc1OC(=O)C(C)(C)C (stereo not shown) [Example 27, 3-(1-methyl-allyl)-4-pivaloyloxybenzophenone] | 320 nM |
| CC(C)(C)C(=O)Oc1ccc(C(=O)c2ccccc2)cc1CCCO [Example 29, 3-(3-hydroxyoropyl)-4-pivaloyloxybenzophenone] | 350 nM |
| CC(C)C(=O)Oc1ccc(C(=O)c2ccccc2)cc1 [Example 34, 4-isobutyryloxybenzophenone] | 250 nM |
| CC(C)(C)C(=O)Oc1ccc(Cc2ccc(OC(=O)C(C)(C)C)cc2)cc1 [Example 39, 4,4'-dipivaloyloxydiphenylmethane] | 450 nM |
| CC(C)C(=O)Oc1ccc(C(=O)c2ccc(OC(=O)C(C)C)cc2)cc1 [Example 40, 4,4'-diisobutyryloxybenzophenone] | 150 nM |
